Measurements reported in patent US11312712B2, “Azabenzimidazoles and their use as AMPA receptor modulators” (Janssen Pharmaceutica NV, priority 2015, dated 2022).

Each molecule was assayed against GluA1o-γ8 (GRIA1o-CACNG8 fusion construct) (Homo sapiens (Human), UniProt P42261+Q8WXS5) (assay: Calcium flux assay (FLIPR), inhibition of TARP γ8 dependent AMPA receptor activity). Details: GluA1o-γ8 (GRIA1o-CACNG8 fusion) in HEK293 cells, calcium flux after 15 μM glutamate.
GluA1o-γ8 (GRIA1o-CACNG8 fusion construct), sequence (P42261 other isoform, or with tags, fused parts or gaps): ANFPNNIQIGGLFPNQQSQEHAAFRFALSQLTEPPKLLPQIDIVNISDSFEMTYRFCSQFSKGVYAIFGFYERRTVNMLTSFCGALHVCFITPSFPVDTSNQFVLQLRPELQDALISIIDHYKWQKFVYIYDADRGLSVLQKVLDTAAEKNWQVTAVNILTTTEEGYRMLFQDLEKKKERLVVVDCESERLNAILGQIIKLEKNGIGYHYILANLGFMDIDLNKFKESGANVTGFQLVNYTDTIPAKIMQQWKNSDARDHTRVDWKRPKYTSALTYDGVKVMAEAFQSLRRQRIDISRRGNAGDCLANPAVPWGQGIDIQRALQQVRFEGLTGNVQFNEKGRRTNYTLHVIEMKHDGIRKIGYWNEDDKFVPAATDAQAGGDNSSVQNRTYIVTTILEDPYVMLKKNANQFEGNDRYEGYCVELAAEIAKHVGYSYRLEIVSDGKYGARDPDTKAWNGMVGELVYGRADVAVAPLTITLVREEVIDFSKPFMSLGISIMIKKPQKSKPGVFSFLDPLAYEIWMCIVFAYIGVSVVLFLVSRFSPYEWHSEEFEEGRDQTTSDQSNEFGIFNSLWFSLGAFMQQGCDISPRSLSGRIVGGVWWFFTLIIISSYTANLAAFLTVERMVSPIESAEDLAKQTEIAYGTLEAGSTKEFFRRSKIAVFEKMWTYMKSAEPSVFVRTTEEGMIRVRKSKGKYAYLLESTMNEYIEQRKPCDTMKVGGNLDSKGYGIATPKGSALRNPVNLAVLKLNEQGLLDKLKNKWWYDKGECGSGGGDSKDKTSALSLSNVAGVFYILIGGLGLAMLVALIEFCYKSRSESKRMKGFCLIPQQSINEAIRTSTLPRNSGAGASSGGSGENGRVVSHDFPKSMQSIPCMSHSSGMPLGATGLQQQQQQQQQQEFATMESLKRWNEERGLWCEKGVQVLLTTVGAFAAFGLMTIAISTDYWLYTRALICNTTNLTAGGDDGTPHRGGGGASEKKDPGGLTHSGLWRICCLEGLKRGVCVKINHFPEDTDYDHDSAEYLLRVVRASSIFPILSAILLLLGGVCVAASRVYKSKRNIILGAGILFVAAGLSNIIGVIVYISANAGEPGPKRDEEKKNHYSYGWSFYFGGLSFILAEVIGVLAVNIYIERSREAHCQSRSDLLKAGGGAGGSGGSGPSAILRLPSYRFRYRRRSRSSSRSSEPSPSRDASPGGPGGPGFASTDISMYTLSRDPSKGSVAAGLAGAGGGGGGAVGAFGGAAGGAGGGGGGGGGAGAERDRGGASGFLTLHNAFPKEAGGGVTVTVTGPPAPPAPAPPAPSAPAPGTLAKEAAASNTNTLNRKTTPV
Type: cell-based
Procedure, shortened: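 Glutamate (15 μM) was added to a stable HEK293 line carrying the GluA1o–γ8 fusion, which had been preincubated with compound and calcium dye in HEPES buffer, pH 7.4. Normalized FLIPR fluorescence (no compound vs 10 μM CP465022) was fitted with four parameters; pIC50 is the midpoint's negative log.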
`O=C1Cc2cc(-n3c(-c4ccc(F)cc4)c(Br)c4ccc(F)nc43)ccc2N1` [Example 349, 5-[3-Bromo-6-fluoro-2-(4-fluorophenyl)pyrrolo[2,3-b]pyridin-1-yl]indolin-2-one] gave an IC50 of 3.98 nM. Molecule `O=C1Cc2cc(-n3c(-c4ccc(F)cc4)cc4ccc(F)nc43)ccc2N1` [Example 350, 5-[6-Fluoro-2-(4-fluorophenyl)pyrrolo[2,3-b]pyridin-1-yl]indolin-2-one] has an IC50 of 0.794 nM. `Cc1cc2ccc(C(F)(F)F)nc2n1-c1ccc2[nH]ccc2c1` [Example 351, 1-(1H-Indol-5-yl)-2-methyl-6-(trifluoromethyl)pyrrolo[2,3-b]pyridine] gave an IC50 of 25.1 nM. `Cc1cc2ccc(C(F)(F)F)nc2n1-c1ccc2c(c1)CC(=O)N2` [Example 352, 5-[2-Methyl-6-(trifluoromethyl)pyrrolo[2,3-b]pyridin-1-yl]indolin-2-one] showed an IC50 of 0.501 nM. Work on `Cc1cc(-n2c(C)cc3cccnc32)cc2c1NC(=O)C2` [Example 353, 7-Methyl-5-(2-methyl-1H-pyrrolo[2,3-b]pyridin-1-yl)indolin-2-one] yielded an IC50 of 12.6 nM. `Cc1cc2ccc(C(F)(F)F)nc2n1-c1ccc2[nH]ncc2c1` [Example 354, 5-(2-Methyl-6-(trifluoromethyl)-1H-pyrrolo[2,3-b]pyridin-1-yl)-1H-indazole] showed an IC50 of 0.501 nM. In the case of `Cc1cc2ccc(C(F)(F)F)nc2n1-c1ccc2[nH]c(=O)sc2c1` [Example 355, 6-(2-Methyl-6-(trifluoromethyl)-1H-pyrrolo[2,3-b]pyridin-1-yl)benzo[d]thiazol-2(3H)-one], the IC50 is reported as 0.02 nM. In the case of `CC(C)c1cc2cccnc2n1-c1cc(Cl)c2[nH]ncc2c1` [Example 356, 1-(7-Chloro-1H-indazol-5-yl)-2-isopropyl-pyrrolo[2,3-b]pyridine], the IC50 is reported as 0.02 nM. For `CC(C)c1cc2cccnc2n1-c1cc(Cl)c2c(c1)CC(=O)N2` [Example 357, 7-Chloro-5-(2-isopropylpyrrolo[2,3-b]pyridin-1-yl)indolin-2-one], the IC50 was 0.0316 nM. `Cc1cc(-n2c(C(C)C)cc3cccnc32)cc2c1NC(=O)C2` [Example 358, 5-(2-Isopropylpyrrolo[2,3-b]pyridin-1-yl)-7-methyl-indolin-2-one] gave an IC50 of 0.2 nM. `Cc1cc(-n2c(C3CC3)cc3cccnc32)cc2c1NC(=O)C2` [Example 359, 5-(2-Cyclopropylpyrrolo[2,3-b]pyridin-1-yl)-7-methyl-indolin-2-one] was tested, and the IC50 was 10 nM. Work on `Cc1ccc2cc(C(C)C)n(-c3cc(C)c4c(c3)CC(=O)N4)c2n1` [Example 360, 5-(2-Isopropyl-6-methyl-pyrrolo[2,3-b]pyridin-1-yl)-7-methyl-indolin-2-one] yielded an IC50 of 0.0631 nM. In the case of `CC(C)c1cc2cccnc2n1-c1cc(F)c2c(c1)CC(=O)N2` [Example 361, 7-Fluoro-5-(2-isopropylpyrrolo[2,3-b]pyridin-1-yl)indolin-2-one], the IC50 is reported as 7.94 nM. With `Cc1ccc2cc(C(C)C)n(-c3cc(F)c4c(c3)CC(=O)N4)c2n1` [Example 362, 7-Fluoro-5-(2-isopropyl-6-methyl-pyrrolo[2,3-b]pyridin-1-yl)indolin-2-one] the IC50 was 0.0398 nM. `Cc1cc2cccnc2n1-c1cc(F)c2c(c1)CC(=O)N2` [Example 363, 7-Fluoro-5-(2-methylpyrrolo[2,3-b]pyridin-1-yl)indolin-2-one] gave an IC50 of 200 nM. Work on `Cc1cc2ccc(C(F)(F)F)nc2n1-c1cc(F)c2c(c1)CC(=O)N2` [Example 364, 7-Fluoro-5-[2-methyl-6-(trifluoromethyl)pyrrolo[2,3-b]pyridin-1-yl]indolin-2-one] yielded an IC50 of 3160 nM. In the case of `COCc1cc2ccc(C(F)(F)F)nc2n1-c1cc(F)c2c(c1)CC(=O)N2` [Example 366, 7-Fluoro-5-[2-(methoxymethyl)-6-(trifluoromethyl)pyrrolo[2,3-b]pyridin-1-yl]indolin-2-one], the IC50 is reported as 0.631 nM. `Cc1cc(-n2c(C(C)C)cc3ccc(C(F)(F)F)nc32)cc2c1NC(=O)C2` [Example 367, 5-[2-Isopropyl-6-(trifluoromethyl)pyrrolo[2,3-b]pyridin-1-yl]-7-methyl-indolin-2-one] was tested, and the IC50 was 0.0251 nM. Molecule `CC(C)c1cc2ccc(C(F)(F)F)nc2n1-c1cc(F)c2c(c1)CC(=O)N2` [Example 369, 7-Fluoro-5-[2-isopropyl-6-(trifluoromethyl)pyrrolo[2,3-b]pyridin-1-yl]indolin-2-one] has an IC50 of 0.00794 nM. In the case of `Cc1cc(-n2c(C(C)C)cc3ccc(C(F)(F)F)nc32)cc2cn[nH]c12` [Example 370, 2-Isopropyl-1-(7-methyl-1H-indazol-5-yl)-6-(trifluoromethyl)pyrrolo[2,3-b]pyridine], the IC50 is reported as 0.00794 nM. In the case of `Cc1cc(-n2c(CCCF)cc3ccc(C(F)(F)F)nc32)cc2cn[nH]c12` [Example 371, 2-(3-Fluoropropyl)-1-(7-methyl-1H-indazol-5-yl)-6-(trifluoromethyl)pyrrolo[2,3-b]pyridine], the IC50 is reported as 0.0398 nM. In the case of `FCCCc1cc2ccc(C(F)(F)F)nc2n1-c1cc(Cl)c2[nH]ncc2c1` [Example 372, 1-(7-Chloro-1H-indazol-5-yl)-2-(3-fluoropropyl)-6-(trifluoromethyl)pyrrolo[2,3-b]pyridine], the IC50 is reported as 0.0316 nM. In the case of `Cc1cc(-n2c(C)cc3ccc(C(F)(F)F)nc32)cc2cn[nH]c12` [Example 373, 2-Methyl-1-(7-methyl-1H-indazol-5-yl)-6-(trifluoromethyl)pyrrolo[2,3-b]pyridine], the IC50 is reported as 0.0501 nM. `Cc1cc2ccc(C(F)(F)F)nc2n1-c1cc(Cl)c2[nH]ncc2c1` [Example 374, 1-(7-Chloro-1H-indazol-5-yl)-2-methyl-6-(trifluoromethyl)pyrrolo[2,3-b]pyridine] showed an IC50 of 0.0126 nM. In the case of `Cc1cc(-n2c(C)cc3cccnc32)cc2cn[nH]c12` [Example 375, 2-Methyl-1-(7-methyl-1H-indazol-5-yl)pyrrolo[2,3-b]pyridine], the IC50 is reported as 10 nM. `CC(C)c1cc2ccc(C(F)(F)F)nc2n1-c1cnc2[nH]ncc2c1` [Example 376, 5-[2-Isopropyl-6-(trifluoromethyl)pyrrolo[2,3-b]pyridin-1-yl]-1H-pyrazolo[3,4-b]pyridine] showed an IC50 of 0.0501 nM. For `Cc1cc(-n2ccc3ccc(C(F)(F)F)nc32)cc2cn[nH]c12` [Example 377, 1-(7-Methyl-1H-indazol-5-yl)-6-(trifluoromethyl)pyrrolo[2,3-b]pyridine], the IC50 was 2 nM. `Cc1ccc2ccn(-c3cc(C)c4c(c3)CC(=O)N4)c2n1` [Example 378, 7-Methyl-5-(6-methylpyrrolo[2,3-b]pyridin-1-yl)indolin-2-one] showed an IC50 of 100 nM. In the case of `Cc1ccc2ccn(-c3cc(F)c4c(c3)CC(=O)N4)c2n1` [Example 379, 7-Fluoro-5-(6-methylpyrrolo[2,3-b]pyridin-1-yl)indolin-2-one], the IC50 is reported as 100 nM. For `Cc1ccc2cc(C3CC3)n(-c3ccc4c(c3)CC(=O)N4)c2n1` [Example 380, 5-(2-Cyclopropyl-6-methyl-pyrrolo[2,3-b]pyridin-1-yl)indolin-2-one], the IC50 was 1 nM. Work on `Cc1ccc2cc(-c3ccc(F)cc3)n(-c3ccc4[nH]ccc4c3)c2n1` [Example 381, 2-(4-Fluorophenyl)-1-(1H-indol-5-yl)-6-methyl-pyrrolo[2,3-b]pyridine] yielded an IC50 of 5.01 nM. For `Cc1ccc2cc(-c3ccc(F)cc3)n(-c3ccc4c(c3)CC(=O)N4)c2n1` [Example 382, 5-[2-(4-Fluorophenyl)-6-methyl-pyrrolo[2,3-b]pyridin-1-yl]indolin-2-one], the IC50 was 0.398 nM. `O=C1Cc2cc(-n3c(-c4ccc(F)cc4)cc4ccc(Cl)nc43)ccc2N1` [Example 383, 5-[6-Chloro-2-(4-fluorophenyl)pyrrolo[2,3-b]pyridin-1-yl]indolin-2-one] showed an IC50 of 0.1 nM. Work on `COc1ccc2cc(-c3ccc(F)cc3)n(-c3ccc4c(c3)CC(=O)N4)c2n1` [Example 384, 5-[2-(4-Fluorophenyl)-6-methoxy-pyrrolo[2,3-b]pyridin-1-yl]indolin-2-one] yielded an IC50 of 5.01 nM. Molecule `Fc1ccc(-c2cc3ccc(Cl)nc3n2-c2ccc3[nH]ccc3c2)cc1` [Example 385, 6-Chloro-2-(4-fluorophenyl)-1-(1H-indol-5-yl)pyrrolo[2,3-b]pyridine] has an IC50 of 15.8 nM. For `CC(C)(C)Oc1ccc2cc(-c3ccc(F)cc3)n(-c3ccc4[nH]ccc4c3)c2n1` [Example 386, 6-tert-Butoxy-2-(4-fluorophenyl)-1-(1H-indol-5-yl)pyrrolo[2,3-b]pyridine], the IC50 was 1580 nM. Molecule `Fc1ccc(-c2cc3ccc(C(F)(F)F)nc3n2-c2ccc3[nH]ccc3c2)cc1` [Example 387, 2-(4-Fluorophenyl)-1-(1H-indol-5-yl)-6-(trifluoromethyl)pyrrolo[2,3-b]pyridine] has an IC50 of 6.31 nM. For `FC(F)(F)c1ccc2cc(-c3ccccc3)n(-c3ccc4[nH]ccc4c3)c2n1` [Example 388, 1-(1H-Indol-5-yl)-2-phenyl-6-(trifluoromethyl)pyrrolo[2,3-b]pyridine], the IC50 was 7.94 nM. `O=C1Cc2cc(-n3c(C4CC4)c(Br)c4ccc(C(F)(F)F)nc43)ccc2N1` [Example 389, 5-[3-Bromo-2-cyclopropyl-6-(trifluoromethyl)pyrrolo[2,3-b]pyridin-1-yl]indolin-2-one] showed an IC50 of 0.0631 nM. `Cc1ccc2cc(-c3ccccc3)n(-c3cnc4[nH]ccc4c3)c2n1` [Example 390, 6-Methyl-2-phenyl-1-(1H-pyrrolo[2,3-b]pyridin-5-yl)pyrrolo[2,3-b]pyridine] showed an IC50 of 1.26 nM. With `CC(C)c1cc2ccc(C(F)(F)F)nc2n1-c1cnc2[nH]ccc2c1` [Example 391, 2-Isopropyl-1-(1H-pyrrolo[2,3-b]pyridin-5-yl)-6-(trifluoromethyl)pyrrolo[2,3-b]pyridine] the IC50 was 0.631 nM. With `Cc1ccc2c(Br)c(-c3ccccc3)n(-c3cnc4c(c3)CC(=O)N4)c2n1` [Example 393, 5-(3-Bromo-6-methyl-2-phenyl-pyrrolo[2,3-b]pyridin-1-yl)-1,3-dihydropyrrolo[2,3-b]pyridin-2-one] the IC50 was 3.16 nM. Work on `CC(C)c1c(Br)c2ccc(C(F)(F)F)nc2n1-c1cnc2c(c1)CC(=O)N2` [Example 394, 5-[3-Bromo-2-isopropyl-6-(trifluoromethyl)pyrrolo[2,3-b]pyridin-1-yl]-1,3-dihydropyrrolo[2,3-b]pyridin-2-one] yielded an IC50 of 31.6 nM.
